Tests used:
ISC-enriched organoids [1] = experiment: Primary screen, 384-well 2.5-D organoid differentiation (ENR+CD, 6 days, Target Selective Inhibitor Library, vs whole-plate median): ATP (CellTiter-Glo 3D, CTG); details: for Dose.FC.CTG: primary screen, FC vs plate median; for Z.CTG: standard z score of FC
ISC-enriched organoids [2] = experiment: Primary screen, 384-well 2.5-D organoid differentiation (ENR+CD, 6 days): carbachol-induced lysozyme secretion (LYZ.S); assay type: cell-based, murine; details: primary screen, FC vs plate median
From the text: (§1) High-throughput screening.

ISC-enriched organoids [3] = experiment: Primary screen, 384-well 2.5-D organoid differentiation (ENR+CD, 6 days): basal lysozyme secretion (LYZ.NS); assay type: cell-based, murine; details: for Dose.FC.LYZ.NS: primary screen, FC vs plate median; for Z.LYZ.NS: standard z score of FC
From the text: as §1

Question: What does the source list for `O=C(NOCC1CC1)c1ccc(F)c(F)c1Nc1ccc(I)cc1Cl` [PD184352 (CI-1040)]?
Answer: Dose.FC.CTG (ISC-enriched organoids [1]; Dose 0.08 uM): 0.366 log 2 fold change; Z.CTG (ISC-enriched organoids [1]; Dose 0.08 uM): 0.874; Dose.FC.CTG (ISC-enriched organoids [1]; Dose 0.40 uM): 0.261 log 2 fold change; Z.CTG (ISC-enriched organoids [1]; Dose 0.40 uM): 0.624; Dose.FC.CTG (ISC-enriched organoids [1]; Dose 2.00 uM): −0.212 log 2 fold change; Z.CTG (ISC-enriched organoids [1]; Dose 2.00 uM): −0.506; Dose.FC.CTG (ISC-enriched organoids [1]; Dose 10.00 uM): −0.796 log 2 fold change; Z.CTG (ISC-enriched organoids [1]; Dose 10.00 uM): −1.901; Dose.FC.LYZ.S (ISC-enriched organoids [2]; Dose 0.08 uM): −0.019 log 2 fold change; Dose.FC.LYZ.S (ISC-enriched organoids [2]; Dose 0.40 uM): −0.047 log 2 fold change; Dose.FC.LYZ.S (ISC-enriched organoids [2]; Dose 2.00 uM): −0.178 log 2 fold change; Dose.FC.LYZ.S (ISC-enriched organoids [2]; Dose 10.00 uM): −0.239 log 2 fold change; Dose.FC.LYZ.NS (ISC-enriched organoids [3]; Dose 0.08 uM): −0.019 log 2 fold change; Z.LYZ.NS (ISC-enriched organoids [3]; Dose 0.08 uM): −0.162; Dose.FC.LYZ.NS (ISC-enriched organoids [3]; Dose 0.40 uM): −0.053 log 2 fold change; Z.LYZ.NS (ISC-enriched organoids [3]; Dose 0.40 uM): −0.458; Dose.FC.LYZ.NS (ISC-enriched organoids [3]; Dose 2.00 uM): −0.135 log 2 fold change; Z.LYZ.NS (ISC-enriched organoids [3]; Dose 2.00 uM): −1.176; Dose.FC.LYZ.NS (ISC-enriched organoids [3]; Dose 10.00 uM): −0.116 log 2 fold change; Z.LYZ.NS (ISC-enriched organoids [3]; Dose 10.00 uM): −1.011

Question: How did the Dose.FC.CTG (ISC-enriched organoids [1]; Dose 0.08 uM) turn out when `O=C(Nc1cccnc1)N1CCC(Cc2cccc(Oc3ccc(C(F)(F)F)cn3)c2)CC1` [PF-3845] was run?
Answer: −0.047 log 2 fold change

Question: What about the Z.CTG (ISC-enriched organoids [1]; Dose 0.08 uM) of the same compound?
Answer: −0.112

Question: What about the Dose.FC.CTG (ISC-enriched organoids [1]; Dose 0.40 uM) of the same compound?
Answer: 0.052 log 2 fold change

Question: And the Z.CTG (ISC-enriched organoids [1]; Dose 0.40 uM)?
Answer: 0.125

Question: And the Dose.FC.CTG (ISC-enriched organoids [1]; Dose 2.00 uM)?
Answer: −0.103 log 2 fold change

Question: And the Z.CTG (ISC-enriched organoids [1]; Dose 2.00 uM)?
Answer: −0.246

Question: What about the Dose.FC.CTG (ISC-enriched organoids [1]; Dose 10.00 uM) of the same compound?
Answer: −0.286 log 2 fold change

Question: And the Z.CTG (ISC-enriched organoids [1]; Dose 10.00 uM)?
Answer: −0.684

Question: And the Dose.FC.LYZ.S (ISC-enriched organoids [2]; Dose 0.08 uM)?
Answer: 0.027 log 2 fold change

Question: And the Dose.FC.LYZ.S (ISC-enriched organoids [2]; Dose 0.40 uM)?
Answer: −0.061 log 2 fold change

Question: What about the Dose.FC.LYZ.S (ISC-enriched organoids [2]; Dose 2.00 uM) of the same compound?
Answer: −0.032 log 2 fold change

Question: What about the Dose.FC.LYZ.S (ISC-enriched organoids [2]; Dose 10.00 uM) of the same compound?
Answer: −0.195 log 2 fold change

Question: What about the Dose.FC.LYZ.NS (ISC-enriched organoids [3]; Dose 0.08 uM) of the same compound?
Answer: 0.061 log 2 fold change

Question: And the Z.LYZ.NS (ISC-enriched organoids [3]; Dose 0.08 uM)?
Answer: 0.532

Question: And the Dose.FC.LYZ.NS (ISC-enriched organoids [3]; Dose 0.40 uM)?
Answer: −0.077 log 2 fold change

Question: What about the Z.LYZ.NS (ISC-enriched organoids [3]; Dose 0.40 uM) of the same compound?
Answer: −0.668

Question: What about the Dose.FC.LYZ.NS (ISC-enriched organoids [3]; Dose 2.00 uM) of the same compound?
Answer: −0.015 log 2 fold change

Question: And the Z.LYZ.NS (ISC-enriched organoids [3]; Dose 2.00 uM)?
Answer: −0.131

Question: And the Dose.FC.LYZ.NS (ISC-enriched organoids [3]; Dose 10.00 uM)?
Answer: −0.131 log 2 fold change

Question: What about the Z.LYZ.NS (ISC-enriched organoids [3]; Dose 10.00 uM) of the same compound?
Answer: −1.137

Question: Which Dose.FC.CTG (ISC-enriched organoids [1]; Dose 0.08 uM) does the source give for `CN(c1ncccc1CNc1nc(Nc2ccc3c(c2)CC(=O)N3)ncc1C(F)(F)F)S(C)(=O)=O` [PF-562271] here?
Answer: −0.114 log 2 fold change

Question: And the Z.CTG (ISC-enriched organoids [1]; Dose 0.08 uM)?
Answer: −0.273

Question: What about the Dose.FC.CTG (ISC-enriched organoids [1]; Dose 0.40 uM) of the same compound?
Answer: −0.217 log 2 fold change

Question: And the Z.CTG (ISC-enriched organoids [1]; Dose 0.40 uM)?
Answer: −0.518

Question: What about the Dose.FC.CTG (ISC-enriched organoids [1]; Dose 2.00 uM) of the same compound?
Answer: −0.549 log 2 fold change

Question: And the Z.CTG (ISC-enriched organoids [1]; Dose 2.00 uM)?
Answer: −1.311

Question: What about the Dose.FC.CTG (ISC-enriched organoids [1]; Dose 10.00 uM) of the same compound?
Answer: −0.949 log 2 fold change

Question: What about the Z.CTG (ISC-enriched organoids [1]; Dose 10.00 uM) of the same compound?
Answer: −2.266

Question: What about the Dose.FC.LYZ.S (ISC-enriched organoids [2]; Dose 0.08 uM) of the same compound?
Answer: −0.088 log 2 fold change

Question: What about the Dose.FC.LYZ.S (ISC-enriched organoids [2]; Dose 0.40 uM) of the same compound?
Answer: −0.214 log 2 fold change

Question: What about the Dose.FC.LYZ.S (ISC-enriched organoids [2]; Dose 2.00 uM) of the same compound?
Answer: −0.332 log 2 fold change

Question: And the Dose.FC.LYZ.S (ISC-enriched organoids [2]; Dose 10.00 uM)?
Answer: −0.414 log 2 fold change

Question: What about the Dose.FC.LYZ.NS (ISC-enriched organoids [3]; Dose 0.08 uM) of the same compound?
Answer: −0.068 log 2 fold change

Question: What about the Z.LYZ.NS (ISC-enriched organoids [3]; Dose 0.08 uM) of the same compound?
Answer: −0.589

Question: And the Dose.FC.LYZ.NS (ISC-enriched organoids [3]; Dose 0.40 uM)?
Answer: −0.152 log 2 fold change

Question: What about the Z.LYZ.NS (ISC-enriched organoids [3]; Dose 0.40 uM) of the same compound?
Answer: −1.325

Question: And the Dose.FC.LYZ.NS (ISC-enriched organoids [3]; Dose 2.00 uM)?
Answer: −0.234 log 2 fold change

Question: What about the Z.LYZ.NS (ISC-enriched organoids [3]; Dose 2.00 uM) of the same compound?
Answer: −2.034

Question: And the Dose.FC.LYZ.NS (ISC-enriched organoids [3]; Dose 10.00 uM)?
Answer: −0.251 log 2 fold change

Question: And the Z.LYZ.NS (ISC-enriched organoids [3]; Dose 10.00 uM)?
Answer: −2.184

Question: How did the Dose.FC.CTG (ISC-enriched organoids [1]; Dose 0.08 uM) turn out when `CS(=O)(=O)c1cccc(CNc2nc(Nc3ccc4c(c3)CCC(=O)N4)ncc2C(F)(F)F)c1` [PF-573228] was run?
Answer: 0.077 log 2 fold change

Question: And the Z.CTG (ISC-enriched organoids [1]; Dose 0.08 uM)?
Answer: 0.183

Question: And the Dose.FC.CTG (ISC-enriched organoids [1]; Dose 0.40 uM)?
Answer: −0.054 log 2 fold change

Question: What about the Z.CTG (ISC-enriched organoids [1]; Dose 0.40 uM) of the same compound?
Answer: −0.129

Question: And the Dose.FC.CTG (ISC-enriched organoids [1]; Dose 2.00 uM)?
Answer: −0.434 log 2 fold change

Question: And the Z.CTG (ISC-enriched organoids [1]; Dose 2.00 uM)?
Answer: −1.037

Question: And the Dose.FC.CTG (ISC-enriched organoids [1]; Dose 10.00 uM)?
Answer: −0.497 log 2 fold change

Question: And the Z.CTG (ISC-enriched organoids [1]; Dose 10.00 uM)?
Answer: −1.188

Question: And the Dose.FC.LYZ.S (ISC-enriched organoids [2]; Dose 0.08 uM)?
Answer: 0.114 log 2 fold change

Question: What about the Dose.FC.LYZ.S (ISC-enriched organoids [2]; Dose 0.40 uM) of the same compound?
Answer: 0.002 log 2 fold change

Question: And the Dose.FC.LYZ.S (ISC-enriched organoids [2]; Dose 2.00 uM)?
Answer: −0.174 log 2 fold change

Question: What about the Dose.FC.LYZ.S (ISC-enriched organoids [2]; Dose 10.00 uM) of the same compound?
Answer: −0.305 log 2 fold change

Question: What about the Dose.FC.LYZ.NS (ISC-enriched organoids [3]; Dose 0.08 uM) of the same compound?
Answer: 0.010 log 2 fold change

Question: What about the Z.LYZ.NS (ISC-enriched organoids [3]; Dose 0.08 uM) of the same compound?
Answer: 0.089

Question: And the Dose.FC.LYZ.NS (ISC-enriched organoids [3]; Dose 0.40 uM)?
Answer: −0.046 log 2 fold change

Question: And the Z.LYZ.NS (ISC-enriched organoids [3]; Dose 0.40 uM)?
Answer: −0.401

Question: And the Dose.FC.LYZ.NS (ISC-enriched organoids [3]; Dose 2.00 uM)?
Answer: −0.058 log 2 fold change

Question: And the Z.LYZ.NS (ISC-enriched organoids [3]; Dose 2.00 uM)?
Answer: −0.502

Question: And the Dose.FC.LYZ.NS (ISC-enriched organoids [3]; Dose 10.00 uM)?
Answer: −0.250 log 2 fold change

Question: What about the Z.LYZ.NS (ISC-enriched organoids [3]; Dose 10.00 uM) of the same compound?
Answer: −2.180

Question: How did the Dose.FC.CTG (ISC-enriched organoids [1]; Dose 0.08 uM) turn out when `OCCn1cc(-c2cnc3nnn(Cc4ccc5ncccc5c4)c3n2)cn1` [PF-04217903] was run?
Answer: 0.136 log 2 fold change

Question: And the Z.CTG (ISC-enriched organoids [1]; Dose 0.08 uM)?
Answer: 0.326

Question: What about the Dose.FC.CTG (ISC-enriched organoids [1]; Dose 0.40 uM) of the same compound?
Answer: 0.258 log 2 fold change

Question: What about the Z.CTG (ISC-enriched organoids [1]; Dose 0.40 uM) of the same compound?
Answer: 0.616

Question: What about the Dose.FC.CTG (ISC-enriched organoids [1]; Dose 2.00 uM) of the same compound?
Answer: −0.051 log 2 fold change

Question: What about the Z.CTG (ISC-enriched organoids [1]; Dose 2.00 uM) of the same compound?
Answer: −0.122

Question: And the Dose.FC.CTG (ISC-enriched organoids [1]; Dose 10.00 uM)?
Answer: 0.116 log 2 fold change

Question: And the Z.CTG (ISC-enriched organoids [1]; Dose 10.00 uM)?
Answer: 0.276

Question: And the Dose.FC.LYZ.S (ISC-enriched organoids [2]; Dose 0.08 uM)?
Answer: 0.110 log 2 fold change

Question: And the Dose.FC.LYZ.S (ISC-enriched organoids [2]; Dose 0.40 uM)?
Answer: 0.265 log 2 fold change

Question: What about the Dose.FC.LYZ.S (ISC-enriched organoids [2]; Dose 2.00 uM) of the same compound?
Answer: 0.049 log 2 fold change

Question: What about the Dose.FC.LYZ.S (ISC-enriched organoids [2]; Dose 10.00 uM) of the same compound?
Answer: 0.127 log 2 fold change

Question: What about the Dose.FC.LYZ.NS (ISC-enriched organoids [3]; Dose 0.08 uM) of the same compound?
Answer: 0.085 log 2 fold change

Question: And the Z.LYZ.NS (ISC-enriched organoids [3]; Dose 0.08 uM)?
Answer: 0.742

Question: And the Dose.FC.LYZ.NS (ISC-enriched organoids [3]; Dose 0.40 uM)?
Answer: 0.161 log 2 fold change

Question: What about the Z.LYZ.NS (ISC-enriched organoids [3]; Dose 0.40 uM) of the same compound?
Answer: 1.404

Question: And the Dose.FC.LYZ.NS (ISC-enriched organoids [3]; Dose 2.00 uM)?
Answer: 0.122 log 2 fold change

Question: And the Z.LYZ.NS (ISC-enriched organoids [3]; Dose 2.00 uM)?
Answer: 1.060

Question: What about the Dose.FC.LYZ.NS (ISC-enriched organoids [3]; Dose 10.00 uM) of the same compound?
Answer: 0.071 log 2 fold change

Question: And the Z.LYZ.NS (ISC-enriched organoids [3]; Dose 10.00 uM)?
Answer: 0.617
